Consider ten compounds from paper PMC7823661 (Viruses, 2020).

Data set [1] has as its system Brazilian ZIKV strain (ZIKV-BR) in Vero cells. Briefly: Plaque-forming reduction assay, supernatants of infected Vero cells. As to conditions: MOI 1, 12 µM, 48 h; for inhibition at 12 µM: Zika virus, read-out: Vero cells PFR (%). It counts as cell-based, Zika virus.
Data set [2] relates to Brazilian ZIKV strain (ZIKV-BR) in cervical cells. The data set is described as follows: Viral genome detection by RT-qPCR in supernatants of infected cervical cells. As to conditions: supernatant of cervical cells; for reduction of viral load: 12 µM, compared to control; for ZIKV genome copies/mL: MOI 10, 12 µM, 48 h, control 6.7 ± 0.7 × 10^8. It counts as cell-based, Zika virus.

The nature of data set [3]: Cytotoxicity assay (PrestoBlue) in mock-infected Vero cells. It counts as cell-based. Conditions: African green monkey, Vero cells (kidney).
For data set [4], the system named is Brazilian ZIKV strain (ZIKV-BR) in cervical cells. Briefly: Plaque-forming reduction assay, supernatants of infected cervical cells. Conditions: for inhibition at 6 µM / inhibition at 12 µM / inhibition at 25 µM / EC50 / EC90: Zika virus; for inhibition at 6 µM: MOI 10, 6 µM; for inhibition at 6 µM / inhibition at 12 µM / inhibition at 25 µM: read-out: Cervical cells PFR (%); for inhibition at 25 µM: MOI 10, 25 µM; for EC50 / EC90: plaque-forming reduction, MOI 10, 48 h. It counts as cell-based, Zika virus.

Data set [5] in a line: Cytotoxicity assay (PrestoBlue) in mock-infected cervical cells. It counts as cell-based. As to conditions: human.
Another data set has as its system ZIKV-BR in Vero cells. Conditions: read-out: concentration giving 50% of viral inhibition, MOI 0.1; cited from earlier work.
Data set [6] relates to ZIKV strain MR766 in Vero cells. Also noted: method as in earlier work. Conditions: cited from earlier work.
For data set [7], the system named is Brazilian ZIKV strain (ZIKV-BR) in cervical cells. Format: cell-based, Zika virus. Conditions: ZIKV-BR MOI 10, 12 µM, 48 h, versus 0.12% DMSO.
In data set [8] the test system is baby hamster kidney cells (BHK-21). As to conditions: cited from earlier work.
For data set [9], the system named is P. falciparum W2-chloroquine-resistant clone. Conditions: in vitro, read-out: IC50 antiplasmodial; cited from earlier work.
Where [10] appears, read: C33-A cervical epithelial cells (mock-infected), mock-infected cervical cells, 48 h, PrestoBlue, read-out: CC50 (μM)/48 h Cervical.

SMILES strings stand for the structures. Counter-ions that a name gives are not always drawn.

For `O=S(=O)(NCCCCNc1ccnc2cc(Cl)ccc12)c1ccc(F)cc1` [C-Sd7, N-(4-((7-chloroquinolin-4-yl)amino)butyl)-4-fluorobenzenesulfonamide], the inhibition at 12 µM in data set [1] came to 100%. Besides, in data set [2], the “reduction of viral load” value is on record as 2 logs and the “ZIKV genome copies/mL” value was 2.6 ± 0.5 × 10^6 copies/mL. The compound further displayed a CC50 at 48 h in data set [3] of 74.8 ± 1.2 µM. In addition, in [4] (48 h, 48 h), the inhibition at 6 µM was 75.1 ± 0.8% and the inhibition at 25 µM amounted to 100%. Besides, the inhibition at 12 µM in [4] (48 h, MOI 10, 12 µM, 48 h) came to 94.7 ± 0.7%. In [4], this compound gave an EC50 of 3.6 ± 0.1 µM and an EC90 of 9.9 ± 0.2 µM. Also, the CC50 at 48 h in data set [5] (setting [10]) was over 200 µM.
Regarding `Cc1ccc(S(=O)(=O)NCCCNc2ccnc3cc(Cl)ccc23)cc1` [C-Sd1, N-(3-((7-chloroquinolin-4-yl)amino)propyl)-4-methyl-benzenesulfonamide], the inhibition at 12 µM in data set [1] came out at 100%. Moreover, in [2], the “reduction of viral load” value is 2 logs and the “ZIKV genome copies/mL” value was 1.0 ± 0.1 × 10^6 copies/mL. For the same compound, the CC50 at 48 h in [3] was determined as 97 ± 0.5 µM. In [4] (48 h, 48 h), the inhibition at 6 µM was determined as 75.3 ± 1.3% and the inhibition at 25 µM came out at 100%. The inhibition at 12 µM in data set [4] (48 h, MOI 10, 12 µM, 48 h) amounted to 94.2 ± 0.5%. In [4], this compound returned an EC50 of 3.6 ± 0.2 µM and an EC90 of 9.6 ± 0.6 µM. The CC50 at 48 h in data set [5] (setting [10]) was found to be 130 ± 2 µM.
`O=S(=O)(NCCCCNc1ccnc2cc(Cl)ccc12)c1ccccc1` [C-Sd4, N-(4-((7-chloroquinolin-4-yl)amino)butyl)-benzenesulfonamide]: the inhibition at 12 µM in data set [1] is 100%. In addition, in [2], the “reduction of viral load” value is 2 logs and the “ZIKV genome copies/mL” value is listed as 5.1 ± 0.6 × 10^6 copies/mL. Besides, in data set [3], the CC50 at 48 h stood at 143 ± 1.3 µM. In data set [4] (48 h, 48 h), the inhibition at 6 µM was found to be 56.6 ± 0.5% and the inhibition at 25 µM came out at 100%. In addition, the inhibition at 12 µM in [4] (48 h, MOI 10, 12 µM, 48 h) was 92.5 ± 0.2%. Moreover, in data set [4], the EC50 is 5 ± 0.2 µM and the concentration for an effect of 90% (EC90) turned out to be 11.6 ± 0.1 µM. In addition, the CC50 at 48 h in data set [5] (setting [10]) is over 200 µM.
`CCN(CC)CCCC(C)Nc1ccnc2cc(Cl)ccc12` (centres unmarked) [chloroquine]: the EC50 in the data set on ZIKV-BR in Vero cells was 12 ± 3.2 µM.
`O=S(=O)(NCCCNc1ccnc2cc(Cl)ccc12)c1ccc(F)cc1` [C-Sd3, N-(3-((7-chloroquinolin-4-yl)amino)propyl)-4-fluorobenzenesulfonamide]: the inhibition at 12 µM in data set [1] was 100%. In [2], the “reduction of viral load” value is listed as 2 logs and the “ZIKV genome copies/mL” value is given as 4.9 ± 0.3 × 10^6 copies/mL. In data set [3], this compound displayed a CC50 at 48 h of 141 ± 4.4 µM. In addition, in data set [4] (48 h, 48 h), the inhibition at 6 µM was 75 ± 1% and the inhibition at 25 µM worked out at 100%. Also, the inhibition at 12 µM in data set [4] (48 h, MOI 10, 12 µM, 48 h) turned out to be 94 ± 0.7%. In data set [4], this compound registered an EC50 of 3.7 ± 0.1 µM and an EC90 of 10.1 ± 0.1 µM. The CC50 at 48 h in [5] (setting [10]) was over 200 µM.
Turning to `OC(c1cc(C(F)(F)F)nc2c(C(F)(F)F)cccc12)C1CCCCN1` [Mefloquine, (R)-(2.8-bis(trifluoromethyl)quinolin-4-yl)((S)-piperidin-2-yl)methanol hydrochloride, reference compound], in data set [1], the “Vero cells PFR (%)” value worked out at 100%. The inhibition at 12 µM in [1] amounted to 100%; in data set [4] (48 h, MOI 10, 12 µM, 48 h) it was 100%. For the same compound, in [2], the “ZIKV genome copies/mL” value is 2.0 ± 0.6 × 10^5 copies/mL. In addition, the figures for the CC50 at 48 h in [3] and in data set [5] were 26.7 ± 0.9 µM and 48.8 ± 0.2 µM, respectively. Besides, in data set [4], the “Cervical cells IS (selectivity index, CC50/EC50)” value came to 30.5. The “Cervical cells PFR (%)” value in data set [4] (MOI 10, 12 µM, 48 h) turned out to be 100%. Besides, the inhibition at 6 µM in [4] (48 h, 48 h) stood at 97.7 ± 0.3%. The EC50 was 1.6 ± 0.1 µM in [4] and 3.9 ± 0.2 µM in data set [6]. In [4], this compound registered an EC90 of 3.5 ± 0.2 µM. Besides, the “reduction of infected cells” value in [7] is 96.3% ± 3.7. Besides, the CC50 in data set [8] is 17.7 ± 3.5 µM.
For `O=S(=O)(NCCCCNc1ccnc2cc(Cl)ccc12)c1ccc(Br)cc1` [C-Sd6, 4-Bromo-N-(4-((7-chloroquinolin-4-yl)amino)butyl)-benzenesulfonamide], in [1], the inhibition at 12 µM amounted to 100%. For the same compound, in data set [2], the “reduction of viral load” value amounted to 3 logs and the “ZIKV genome copies/mL” value is listed as 2.0 ± 0.2 × 10^5 copies/mL. The CC50 at 48 h in data set [3] amounted to 43.2 ± 0.4 µM. Further, in [4], the “Cervical cells IS (selectivity index, CC50/EC50)” value is over 60.6; the EC50 was found to be 3.3 ± 0.1 µM; the 90% effect concentration (EC90) is 7.4 ± 0.2 µM. In addition, in [4] (48 h, 48 h), the inhibition at 6 µM is 82 ± 0.5% and the inhibition at 25 µM worked out at 100%. Further, the inhibition at 12 µM in [4] (48 h, MOI 10, 12 µM, 48 h) turned out to be 94.8 ± 0.5%. The CC50 at 48 h in data set [5] (setting [10]) was over 200 µM. In addition, the “reduction of infected cells” value in [7] was “over 88%”.
In the case of `COc1ncnc(NS(=O)(=O)c2ccc(N)cc2)c1OC` [sulfadoxine], the 50% inhibitory concentration (IC50) in data set [9] was over 15.5 µM.
Regarding `O=S(=O)(NCCCCNc1ccnc2cc(Cl)ccc12)c1ccc(Cl)cc1` [C-Sd5, 4-Chloro-N-(4-((7-chloroquinolin-4-yl)amino)butyl)-benzenesulfonamide], the inhibition at 12 µM in [1] is 100%. Also, in [2], the “reduction of viral load” value was determined as 3 logs and the “ZIKV genome copies/mL” value is on record as 2.0 ± 0.4 × 10^5 copies/mL. Moreover, in [3], the CC50 at 48 h turned out to be 52.2 ± 3.2 µM. In data set [4], the “Cervical cells IS (selectivity index, CC50/EC50)” value is listed as over 62.5; the EC50 turned out to be 3.2 ± 0.1 µM; the concentration for an effect of 90% (EC90) came out at 7.2 ± 0.1 µM. Besides, in data set [4] (48 h, 48 h), the inhibition at 6 µM worked out at 82.3 ± 0.3% and the inhibition at 25 µM turned out to be 100%. Besides, the inhibition at 12 µM in data set [4] (48 h, MOI 10, 12 µM, 48 h) was determined as 99.5 ± 0.2%. The CC50 at 48 h in data set [5] (setting [10]) was over 200 µM.
In the case of `O=S(=O)(NCCCNc1ccnc2cc(Cl)ccc12)c1ccc(Br)cc1` [C-Sd2, 4-Bromo-N-(3-((7-chloroquinolin-4-yl)amino)propyl)-benzenesulfonamide], the inhibition at 12 µM in [1] was 100%. For the same compound, in [2], the “reduction of viral load” value amounted to 2 logs and the “ZIKV genome copies/mL” value is reported as 2.8 ± 0.4 × 10^6 copies/mL. This compound had a CC50 at 48 h in data set [3] of 56.7 ± 0.4 µM. Besides, in data set [4] (48 h, 48 h), the inhibition at 6 µM is 80.8 ± 0.8% and the inhibition at 25 µM amounted to 100%. The inhibition at 12 µM in data set [4] (48 h, MOI 10, 12 µM, 48 h) turned out to be 93.7 ± 0.3%. In [4], this compound returned an EC50 of 3.3 ± 0.2 µM and a 90% effect concentration (EC90) of 7.8 ± 0.4 µM. Further, the CC50 at 48 h in data set [5] (setting [10]) was determined as 112 ± 1.8 µM.
